According to patent US9962388B2, “Pyrrolopyrimidine compounds used as TLR7 agonist” (priority 2014, dated 2018):
Where two headings read alike, the source gives them in different places.

Columns and labels:
[1] = target: Toll-like receptor 7 (Homo sapiens (Human), UniProt Q9NYK1); experiment: Toll-like receptor 7 in vitro receptor binding activity screen (HEK-blue hTLR7 cell, alkaline phosphatase/Quanti-Blue readout); type: cell-based; conditions: HEK-blue hTLR7 cell, read-out: TLR7 EC50
Method: (§1) Toll-Like Receptor 7 and Toll-Like Receptor 8 In Vitro Receptor Binding Activity Screen
(§2) HEK-blue hTLR7 cell and HEK-blue hTLR8 cell (available from InvivoGen)
(§3) 1. Preparation of 96-well compound plate:
(§4) The compounds were gradient diluted with DMSO in 3-fold using liquid work station POD starting at a concentration of 10 mmol/L and 10 points were diluted (2nd column to 11th column, and each point was duplicated). At 12th column, 1 μL of 5 mg/mL positive compound R848 was added as positive control; and at 1st column, 1 μL of DMSO was added as negative control. Each well contained 1 μL of DMSO.
(§5) 2. The cells in culture flask were collected and the cell density was diluted to 250,000 cells/mL.
(§6) 3. 200 μL (50,000 cells/well) of cell suspension was added into prepared compound plate and the final concentration of DMSO in each well was 0.5%.
(§7) 4. The culture plates containing cells and the compounds were incubated in CO2 incubator for 24 h at 37° C., 5% CO2.
(§8) 5. After 24 h incubation, 20 μL of supernatant was removed from each well to a 96-well transparent assay plate. To each well of the assay plate was added 180 μL of Quanti-Blue reagent and the plate was incubated in an incubator at 37° C., 5% CO2 for 1 h.
(§9) 6. After 1 h, the content of alkaline phosphatase in 20 μL of supernatant was determined using Microplate Reader OD650.
(§10) 7. EC50 of each compound was obtained with Prism software.

[2] = test system: human peripheral blood mononuclear cells (PBMC); experiment: Peripheral blood mononuclear cell assay (cytokine induction, CBA); type: cell-based; conditions: 24 h, human PBMC, 24 h; for minimal effective concentration: Homo sapiens, PBMC, read-out: INF-α MEC
Method: Peripheral Blood Mononuclear Cell Assay The purpose of this example is to determine the expression level of cytokines 24 h after stimulation to human peripheral blood mononuclear cells (PBMC) with the compounds. The cell supernatant was assayed without dilution and the levels of IFN-α and TNF-α were directly determined. The compound was firstly formulated into 20 mM DMSO stock solution and was gradient diluted with cell medium in 10-fold with the total number of 11 diluting points. The compounds in 9 diluting points (the highest concentration was 200 μmol/L) were added into 96-well plate with 50 μL in each well. Fresh human peripheral blood mononuclear cells were inoculated, with 150 μL in each well containing 450,000 cells. The cell culture plate was incubated in an incubator at 37° C., 5% CO2 for 24 h. After incubation, the culture plate was centrifuged at 1200 rpm for 5 min and the supernatant was collected and stored at −20° C. for determination. The determination of cytokine was performed using Cytometric Bead Array (CBA) of BD-Pharmingen on flow cytometer. Using the above determining method, the lowest drug concentration stimulating cytokine level which is over 3 times greater than the lowest detectable limit was designated as the MEC (Minimal Effective Concentration) value in the cytokine stimulating test.

[3] = test system: duck hepatitis b virus; experiment: In vivo pharmacodynamics in duckling model infected with hepatitis B virus; set-up: species or system Beijing ducks
Method: In Vivo Pharmacodynamics in Duckling Model Infected with Hepatitis B Virus
Experimental design and procedures: Beijing ducks of 1 day old were intravenously administered duck hepatitis b virus positive duck serum. After 7 days, the animals were administered according to grouping, 6 ducks in each group. Control group: normal saline. […] The samples were administered intragastricly: 20 mg/kg groups were administered once every third day (one administration every 3 days) and 5 mg/kg groups were administered once every day for 16 days. […] For control group infected with duck hepatitis b virus, solvent was used instead of drug. 7 days after infection, the blood was collected before administration (TO),8 days after administration (T8),16 days after administration (T16) and 3 day after ceasing administration (P3), and the duck serum was separated and frozen for storage. […] Duck serum DNA (DHBV-DNA) determination: different duck sera in a batch were determined for duck blood DHBV-DNA level with real time fluorescent quantitative PCR. Statistics analysis: paired and grouped analysis was used to calculate the significance of inhibition of drug on duck serum DHBV-DNA for assessment.

[4] = in vivo; conditions: male, SD, rat; for half-life: read-out: T½ (converted)
Method: 12 male SD rats were divided into 4 groups with 3 SD rats in each group. […] […] Each rat with oral administration was collected for whole blood samples which were prepared into plasma 15, 30 min and 1, 2, 4, 8, 24 h continuously after administration.

[5] = target: Toll-like receptor 8 (Homo sapiens (Human), UniProt Q9NR97); experiment: Toll-like receptor 8 in vitro receptor binding activity screen (HEK-blue hTLR8 cell, alkaline phosphatase/Quanti-Blue readout); type: cell-based; conditions: HEK-blue hTLR8 cell, head-to-head test; read-out: TLR8 EC50
Chain of Toll-like receptor 8 (Q9NR97 27-1041): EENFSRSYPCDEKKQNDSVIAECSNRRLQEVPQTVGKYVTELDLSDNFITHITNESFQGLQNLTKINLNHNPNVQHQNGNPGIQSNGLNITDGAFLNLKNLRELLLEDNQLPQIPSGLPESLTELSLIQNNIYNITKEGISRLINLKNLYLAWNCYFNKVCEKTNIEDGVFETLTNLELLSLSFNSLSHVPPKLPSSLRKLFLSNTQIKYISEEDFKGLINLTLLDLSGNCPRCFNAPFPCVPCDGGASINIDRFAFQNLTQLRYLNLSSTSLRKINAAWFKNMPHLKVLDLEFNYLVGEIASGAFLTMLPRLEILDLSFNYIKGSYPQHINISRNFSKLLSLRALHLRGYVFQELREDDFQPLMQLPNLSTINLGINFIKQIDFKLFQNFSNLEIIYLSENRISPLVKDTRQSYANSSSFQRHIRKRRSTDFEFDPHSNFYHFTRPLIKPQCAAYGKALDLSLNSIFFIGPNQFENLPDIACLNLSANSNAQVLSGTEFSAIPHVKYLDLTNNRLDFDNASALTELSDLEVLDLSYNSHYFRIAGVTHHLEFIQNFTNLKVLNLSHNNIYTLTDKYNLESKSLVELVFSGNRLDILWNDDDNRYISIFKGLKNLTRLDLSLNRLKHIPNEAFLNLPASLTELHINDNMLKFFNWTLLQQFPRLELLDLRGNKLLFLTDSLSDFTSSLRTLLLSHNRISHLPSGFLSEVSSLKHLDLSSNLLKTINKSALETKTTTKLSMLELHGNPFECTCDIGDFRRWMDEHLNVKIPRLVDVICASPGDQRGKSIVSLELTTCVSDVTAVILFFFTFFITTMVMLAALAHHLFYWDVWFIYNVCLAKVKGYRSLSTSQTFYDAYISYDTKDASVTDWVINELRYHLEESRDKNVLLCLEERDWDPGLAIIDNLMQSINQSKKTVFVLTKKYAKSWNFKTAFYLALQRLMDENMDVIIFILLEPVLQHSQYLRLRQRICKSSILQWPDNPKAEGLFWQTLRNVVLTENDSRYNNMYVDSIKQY
Method: as §1, §2, §3, §4, §5, §6, §7, §8, §9, §10

[6] = Minimal Effective Concentration

Chain of Toll-like receptor 7 (Q9NYK1 27-1049): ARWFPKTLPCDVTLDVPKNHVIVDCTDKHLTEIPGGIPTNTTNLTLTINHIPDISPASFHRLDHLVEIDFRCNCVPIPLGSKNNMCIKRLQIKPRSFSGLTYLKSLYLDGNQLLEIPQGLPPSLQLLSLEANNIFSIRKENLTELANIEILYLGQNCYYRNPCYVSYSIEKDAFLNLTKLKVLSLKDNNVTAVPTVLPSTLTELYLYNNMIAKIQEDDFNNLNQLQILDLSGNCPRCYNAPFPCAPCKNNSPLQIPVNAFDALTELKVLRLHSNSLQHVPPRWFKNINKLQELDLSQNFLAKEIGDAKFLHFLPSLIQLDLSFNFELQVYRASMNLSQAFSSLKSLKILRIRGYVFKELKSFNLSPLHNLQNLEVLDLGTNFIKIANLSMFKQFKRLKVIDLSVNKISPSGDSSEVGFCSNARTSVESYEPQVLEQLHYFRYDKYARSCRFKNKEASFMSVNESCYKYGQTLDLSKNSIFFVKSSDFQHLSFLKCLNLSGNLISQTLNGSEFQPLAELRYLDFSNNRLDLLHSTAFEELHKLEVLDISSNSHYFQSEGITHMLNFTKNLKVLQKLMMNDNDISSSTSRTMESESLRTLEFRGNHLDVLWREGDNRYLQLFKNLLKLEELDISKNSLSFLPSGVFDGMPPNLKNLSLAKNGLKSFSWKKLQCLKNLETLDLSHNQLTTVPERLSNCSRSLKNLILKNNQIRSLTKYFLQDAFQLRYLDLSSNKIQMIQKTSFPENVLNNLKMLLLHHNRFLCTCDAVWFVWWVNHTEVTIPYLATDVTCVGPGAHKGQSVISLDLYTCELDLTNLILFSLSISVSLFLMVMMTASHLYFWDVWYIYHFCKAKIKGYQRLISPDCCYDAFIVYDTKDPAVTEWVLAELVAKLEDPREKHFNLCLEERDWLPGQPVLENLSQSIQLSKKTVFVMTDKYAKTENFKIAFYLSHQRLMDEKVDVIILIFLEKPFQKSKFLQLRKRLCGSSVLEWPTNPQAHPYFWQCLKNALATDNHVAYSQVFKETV

CCCCOc1nc(N)c2[nH]cc(Cc3ccc4c(c3)CN(C)CC4)c2n1 [Example 29, 2-butoxy-7-((2-methyl-1,2,3,4-tetrahydroisoquinoline-7-yl)methyl)-5H-pyrrolo[3,2-d]pyrimidine-4-amine]
EC50 ([1]; 24 h): 100 to 1000 nM
minimal effective concentration [2, 6]: 1e-05 to 0.001 µM

CCCCOc1nc(N)c2[nH]cc(Cc3ccc4c(c3)CN(CC)CC4)c2n1 [Example 30, 2-butoxy-7-((2-ethyl-1,2,3,4-tetrahydroisoquinoline-7-yl)methyl)-5H-pyrrolo[3,2-d]pyrimidine-4-amine]
EC50 ([1]; 24 h): 100 to 1000 nM
minimal effective concentration [2, 6]: 0.001 to 0.01 µM

CCCCOc1nc(N)c2[nH]cc(Cc3ccc4c(c3)CN(C(C)C)CC4)c2n1 [Example 31, 2-butoxy-7-((2-isopropyl-1,2,3,4-tetrahydroisoquinoline-7-yl)methyl)-5H-pyrrolo[3,2-d]pyrimidine-4-amine]
EC50 ([1]; 24 h): 100 to 1000 nM
minimal effective concentration [2, 6]: 0.001 to 0.01 µM

CCCCOc1nc(N)c2[nH]c(C#N)c(Cc3ccc(CN4CCCC4)cc3)c2n1 [Example 42, 4-amino-2-butoxy-7-(4-(pyrrolidine-1-ylmethyl)benzyl)-5H-pyrrolo[3,2-d]pyrimidine-6-carbonitrile]
EC50 ([1]; 24 h): 1 to 100 nM
minimal effective concentration [2, 6]: 1e-05 to 0.001 µM

CCCCOc1nc(N)c2c(n1)N(Cc1cccc(CN3CCCC3)c1)CC(=O)N2 [GS-9620, reference compound]
Duck serum HBV-DNA inhibition % ([3]; 5 mg/kg intragastric once every day for 16 days, P3): 70.60 ± 47.66%
Duck serum HBV-DNA inhibition % ([3]; 5 mg/kg intragastric once every day for 16 days, T8): 98.66 ± 2.75 %
Duck serum HBV-DNA inhibition % ([3]; 5 mg/kg intragastric once every day for 16 days, T16): 78.02 ± 51.69%
Duck serum HBV-DNA inhibition % ([3]; 20 mg/kg intragastric once every third day, P3 (3 days after ceasing administration)): −132.97 ± 352.35%
Duck serum HBV-DNA inhibition % ([3]; 20 mg/kg intragastric once every third day, T8 (8 days after administration)): 99.13 ± 1.83 %
Duck serum HBV-DNA inhibition % ([3]; 20 mg/kg intragastric once every third day, T16 (16 days after administration)): 98.26 ± 1.50 %
rebound of HBV-DNA replication ([3]; 20 mg/kg one administration every third day, 3 days after ceasing administration): rebound of HBV-DNA replication
half-life ([4]; 1 mg/kg, IV 1 mpk): 2.57 h
half-life ([4]; 5 mg/kg, PO 5 mpk): 2.24 h
AUC(0-inf) ([4]; iv, 1 mg/kg): 0.201 µM·h
AUC(0-t) ([4]; iv, 1 mg/kg): 0.185 µM·h
Cmax ([4]; iv, 1 mg/kg): 220 nM
Vd ([4]; iv, 1 mg/kg): 32.8 L/kg
clearance ([4]; iv, 1 mg/kg): 205 mL/min/kg
Mean plasma drug concentration ([4]; iv, 1 mg/kg, 0.083 h): 170 nM
Mean plasma drug concentration ([4]; iv, 1 mg/kg, 0.25 h): 102 nM
Mean plasma drug concentration ([4]; iv, 1 mg/kg, 0.5 h): 65.4 nM
Mean plasma drug concentration ([4]; iv, 1 mg/kg, 1 h): 48.1 nM
Mean plasma drug concentration ([4]; iv, 1 mg/kg, 2 h): 21.6 nM
Mean plasma drug concentration ([4]; iv, 1 mg/kg, 4 h): 13 nM
Mean plasma drug concentration ([4]; iv, 1 mg/kg, 8 h): 4.17 nM
AUC(0-inf) ([4]; po, 5 mg/kg): 0.359 µM·h
AUC(0-t) ([4]; po, 5 mg/kg): 0.316 µM·h
Cmax ([4]; po, 5 mg/kg): 164 nM
Mean plasma drug concentration ([4]; po, 5 mg/kg, 0.25 h): 56.3 nM
Mean plasma drug concentration ([4]; po, 5 mg/kg, 0.5 h): 33.2 nM
Mean plasma drug concentration ([4]; po, 5 mg/kg, 1 h): 83.4 nM
Mean plasma drug concentration ([4]; po, 5 mg/kg, 2 h): 136 nM
Mean plasma drug concentration ([4]; po, 5 mg/kg, 4 h): 16.7 nM
Mean plasma drug concentration ([4]; po, 5 mg/kg, 8 h): 9.49 nM
EC50 ([1]; head-to-head test): 517 nM
minimal effective concentration ([2]; head-to-head test): 0.05 µM
TNF-α MEC ([2]; head-to-head test): 500 nM
EC50 [5]: 7870 nM
